Laboratory results reported in patent US20230129258A1, “HETEROTANDEM BICYCLIC PEPTIDE COMPLEXES” (BicycleTx Limited, priority 2019, published 2023).
Starred links: 1 amine or outer side, 2 acyl side, 3 side chain; linkers in the order of their positions; H or OH if unused. Positions of bridges follow the written chain, without caps; N, C: chain ends. Non-standard residues stand in square brackets, D forms with d. Chains are numbered I, II in the order given. X1 = O=C(CCOCCOCCOCCN(CCOCCOCCOCCn1cc(CCC(=O)[*:2])nn1)CCOCCOCCOCCn1cc(CCC(=O)[*:3])nn1)[*:1]; TATA = O=C(CC[*:1])N1CN(C(=O)CC[*:2])CN(C(=O)CC[*:3])C1; d1Nal = N[C@H](Cc1cccc2ccccc12)C(=O)O; Hyp = O=C(O)[C@@H]1C[C@@H](O)CN1; hArg = N=C(N)NCCCC[C@H](N)C(=O)O; tBuAla = CC(C)(C)C[C@H](N)C(=O)O; Nle = CCCC[C@H](N)C(=O)O

What was measured:
[1] = target: cyno Nectin-4; assay: SPR direct binding to biotinylated Nectin-4 extracellular domain, cyno
From the text: (§1) The binding of BCY11863 to its primary target Nectin-4 and CD137 was characterized using surface plasmon resonance (SPR).

[2] = target: T1, mouse Nectin-4 (Mus musculus, UniProt Q8R007); assay: SPR direct binding to biotinylated Nectin-4 extracellular domain, mouse
T1 sequence (Q8R007 31-347 limits assumed): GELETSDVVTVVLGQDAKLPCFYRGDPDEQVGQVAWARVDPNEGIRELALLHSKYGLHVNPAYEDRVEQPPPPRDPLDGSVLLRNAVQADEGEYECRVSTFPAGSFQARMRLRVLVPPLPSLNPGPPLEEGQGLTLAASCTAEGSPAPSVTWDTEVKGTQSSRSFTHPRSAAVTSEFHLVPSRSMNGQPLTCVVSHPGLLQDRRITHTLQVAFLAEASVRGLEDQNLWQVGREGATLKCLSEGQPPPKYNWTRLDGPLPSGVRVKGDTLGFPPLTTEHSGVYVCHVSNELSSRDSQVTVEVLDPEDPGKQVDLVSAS
From the text: as §1

[3] = target: cyno Nectin-4; assay: Multicomponent SPR: Nectin-4 binding to complex captured on biotinylated human CD137, cyno Nectin-4; details: Sandwich Assay, Nectin-4 ECD, biotinylated human CD137 as capture reagent; read-out: SPR KD NHP
From the text: To understand whether the binding of BCY11863 to Nectin-4 was altered in the context of the ternary complex, i.e. when also bound to CD137, a multicomponent SPR binding assay was developed. BCY11863 was first captured to human CD137 immobilized on the SPR chip surface and then Nectin-4 from different species were passed over the chip to determine their affinities to the captured BCY11863 (see FIG. 21C). The affinities to Nectin-4 were generally maintained in the presence of CD137 binding as shown below: […]

[4] = tested on: MC38 tumors; assay: Anti-tumor activity of BCY13272 in syngeneic MC38 tumor model with re-challenge; assay type: in vivo, C57BL/6J-hCD137 mice; details: for complete responders: 6 doses, day 28
Description: 6-8 week old female C57BL/6J-hCD137 mice [B-hTNFRSF9(CD137) mice; Biocytogen] were implanted subcutaneously with 1×10^6 MC38 cells. Mice were randomized into treatment groups (n=6/cohort) when average tumor volumes reached around 80 mm^3 and were treated with vehicle (25 mM histidine, 10% sucrose, pH7) intravenously (IV), 8 mg/kg BCY13272, 0.9 mg/kg BCY13272 and 0.1 mg/kg BCY13272 IV. All treatments were given twice a week (BIW) for 6 doses in total. Tumor growth was monitored until Day 28 from treatment initiation. Complete responder animals (n=7) were followed until day 62 after treatment initiation and re-challenged with an implantation of 2×10^6 MC38 tumor cells and tumor growth was monitored for 28 days. In parallel, naïve age-matched control huCD137 C57Bl/6 mice (n=5) were implanted with 2×10^6 MC38 tumor cells monitored for 28 days.

[5] = target: human EphA2 (Homo sapiens, UniProt P29317); assay: SPR (Biacore) binding to immobilized human EphA2
human EphA2, sequence (P29317 24-976): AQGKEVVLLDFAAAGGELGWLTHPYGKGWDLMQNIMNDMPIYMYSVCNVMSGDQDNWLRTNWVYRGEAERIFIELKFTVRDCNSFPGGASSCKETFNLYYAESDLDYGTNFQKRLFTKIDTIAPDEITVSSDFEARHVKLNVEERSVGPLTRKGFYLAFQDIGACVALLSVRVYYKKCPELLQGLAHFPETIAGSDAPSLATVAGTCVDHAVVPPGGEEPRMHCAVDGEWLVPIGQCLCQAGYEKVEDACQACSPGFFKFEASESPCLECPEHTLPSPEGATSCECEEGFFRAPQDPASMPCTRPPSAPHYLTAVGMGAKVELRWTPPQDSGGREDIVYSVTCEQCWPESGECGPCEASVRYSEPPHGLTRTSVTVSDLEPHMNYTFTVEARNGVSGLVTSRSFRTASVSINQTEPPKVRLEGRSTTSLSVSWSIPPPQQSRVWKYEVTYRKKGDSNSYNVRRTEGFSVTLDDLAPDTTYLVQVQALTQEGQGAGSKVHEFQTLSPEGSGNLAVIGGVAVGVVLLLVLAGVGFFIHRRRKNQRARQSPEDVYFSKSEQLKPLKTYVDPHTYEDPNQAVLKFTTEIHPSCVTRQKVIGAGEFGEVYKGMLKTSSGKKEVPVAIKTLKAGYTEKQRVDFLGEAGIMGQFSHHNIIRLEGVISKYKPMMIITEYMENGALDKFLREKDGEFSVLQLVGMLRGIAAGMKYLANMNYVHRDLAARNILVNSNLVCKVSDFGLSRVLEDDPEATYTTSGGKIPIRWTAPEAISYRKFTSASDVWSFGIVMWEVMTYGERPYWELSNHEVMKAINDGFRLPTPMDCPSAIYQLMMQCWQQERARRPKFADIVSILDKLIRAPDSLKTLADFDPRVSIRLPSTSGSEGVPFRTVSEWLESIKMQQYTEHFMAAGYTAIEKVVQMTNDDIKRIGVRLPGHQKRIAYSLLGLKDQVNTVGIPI
Description: Biacore experiments were performed to determine ka (M^−1s^−1), kd (s^−1), KD (nM) values of BCY13272 binding to human EphA2 protein.
EphA2 were biotinylated with EZ-Link™ Sulfo-NHS-LC-Biotin for 1 hour in 4 mM sodium acetate, 100 mM NaCl, pH 5.4 with a 3× molar excess of biotin over protein. The degree of labelling was determined using a Fluorescence Biotin Quantification Kit (Thermo) after dialysis of the reaction mixture into PBS. For analysis of peptide binding, a Biacore T200 instrument was used with a XanTec CMD500D chip. Streptavidin was immobilized on the chip using standard amine-coupling chemistry at 25° C. with HBS-N (10 mM HEPES, 0.15 M NaCl, pH 7.4) as the running buffer. Briefly, the carboxymethyl dextran surface was activated with a 7 min injection of a 1:1 ratio of 0.4 M 1-ethyl-3-(3-dimethylaminopropyl) carbodiimide hydrochloride (EDC)/0.1 M N-hydroxy succinimide (NHS) at a flow rate of 10 μl/min. For capture of streptavidin, the protein was diluted to 0.2 mg/ml in 10 mM sodium acetate (pH 4.5) and captured by injecting 120 μl onto the activated chip surface. Residual activated groups were blocked with a 7 min injection of 1 M ethanolamine (pH 8.5):HBS-N (1:1). Buffer was changed to PBS/0.05% Tween 20 and biotinylated EphA2 was captured to a level of 500-1500 RU using a dilution of protein to 0.2 μM in buffer. […]

Row | Compound | Kd ([1]; Direct Binding, biotinylated Nectin-4 extracellular domain, 25° C., read-out: SPR KD NHP (25° C.)) [nM] | Kd ([1]; biotinylated ECD captured on streptavidin chip, read-out: KD) [nM] | Kd ([2]; KD, biotinylated ECD captured on streptavidin chip) [nM] | Kd ([2]; SPR KD Mouse (25° C.), Direct Binding, biotinylated Nectin-4 extracellular domain, 25° C.) [nM] | Kd [3] [nM] | complete responders ([4]; 0.9 mg/kg IV BIW) | complete responders ([4]; 8 mg/kg IV BIW) | tumor regrowth after MC38 re-challenge of complete responders ([4]; re-challenge day 62, monitored 28 days) | Kd [5] [nM]
1 | CCCC[C@@H]1NC(=O)[C@H](Cc2ccc(O)cc2)NC(=O)[C@@H]2CCCN2C(=O)[C@H](CC(=O)O)NC(=O)[C@H](C)NC(=O)[C@H](Cc2ccccc2)NC(=O)[C@@H]2CSCCC(=O)N3CN(CN(C3)C(=O)CCSC[C@@H](C(=O)N[C@@H](C)C(N)=O)NC1=O)C(=O)CCSC[C@H](NC(C)=O)C(=O)N[C@@H](CC(C)(C)C)C(=O)N1CCC[C@H]1C(=O)N[C@@H](CCC(=O)O)C(=O)N[C@H](CCCCNC(=O)CCc1cn(CCOCCOCCOCCN(CCOCCOCCOCCC(=O)N[C@H]3CSCCC(=O)N4CN5CN(C4)C(=O)CCSC[C@H](NC(=O)[C@@H](CC(=O)O)NC(=O)[C@H](Cc4cccc6ccccc46)NC(=O)[C@@H]4CCCN4C3=O)C(=O)N[C@@H](CCSC)C(=O)N[C@@H](CCCCNC(=N)N)C(=O)N[C@@H](CC(=O)O)C(=O)N[C@@H](Cc3c[nH]c4ccccc34)C(=O)N[C@@H](CO)C(=O)N[C@@H]([C@@H](C)O)C(=O)N3CCC[C@H]3C(=O)N3C[C@H](O)C[C@H]3C(=O)N[C@@H](Cc3c[nH]c4ccccc34)C(=O)N[C@H](C(N)=O)CSCCC5=O)CCOCCOCCOCCn3cc(CCC(=O)NCCCC[C@H]4NC(=O)[C@H](CCC(=O)O)NC(=O)[C@@H]5CCCN5C(=O)[C@H](CC(C)(C)C)NC(=O)[C@@H](NC(C)=O)CSCCC(=O)N5CN6CN(C5)C(=O)CCSC[C@H](NC(=O)[C@H](Cc5ccc(O)cc5)NC(=O)[C@@H]5CCCN5C4=O)C(=O)N[C@@H](Cc4ccccc4)C(=O)N[C@@H](C)C(=O)N[C@@H](CC(=O)O)C(=O)N4CCC[C@H]4C(=O)N[C@@H](Cc4ccc(O)cc4)C(=O)N[C@@H](CCCC)C(=O)N[C@H](C(=O)N[C@@H](C)C(N)=O)CSCCC6=O)nn3)nn1)C(=O)N1CCC[C@H]1C(=O)N[C@@H](Cc1ccc(O)cc1)C(=O)N2 [BCY11863] | 27 ± 15 | 5 to 27 | 5 to 27 | 4.6 ± 2.1 | 28 ± 5 |  |  |  | 
2 | I: A[hArg]DC[Hyp]LVNPLCLEP[d1Nal]WTC-NH2 / II: Ac-C[tBuAla]PE[dK]PYCFADPY[Nle]CA-NH2 / III: Ac-C[tBuAla]PE[dK]PYCFADPY[Nle]CA-NH2 (linker I:4-I:11-I:18, II:1-II:8-II:15, III:1-III:8-III:15 via TATA; linker I:N-II:5-III:5 via X1) [BCY13272] |  |  |  |  |  | 2 out of 6 | 5 out of 6 | no tumor regrowth | 2
